# ± gives the expanded uncertainty stated by the source.
# Experiment: molar heat capacity at constant pressure; mn = molality of the nth substance listed, in mol/kg
# Conditions: 100 kPa, Liquid, Large sample (1 g) DSC
smiles,measurement,setting,value
[Cl-].[Na+] [sodium chloride] + O,molar heat capacity at constant pressure,"278.15 K, m1 = 0.2038",75.59 ± 1.2 J/K/mol
same,molar heat capacity at constant pressure,"278.15 K, m1 = 0.3971",75.32 ± 1.2 J/K/mol
same,molar heat capacity at constant pressure,"278.15 K, m1 = 1.032",74.79 ± 1.2 J/K/mol
same,molar heat capacity at constant pressure,"283.15 K, m1 = 0.2038",75.42 ± 1.2 J/K/mol
same,molar heat capacity at constant pressure,"283.15 K, m1 = 0.3971",75.21 ± 1.2 J/K/mol
same,molar heat capacity at constant pressure,"283.15 K, m1 = 1.032",74.42 ± 1.2 J/K/mol
same,molar heat capacity at constant pressure,"288.15 K, m1 = 0.2038",75.27 ± 1.2 J/K/mol
same,molar heat capacity at constant pressure,"288.15 K, m1 = 0.3971",75.07 ± 1.2 J/K/mol
same,molar heat capacity at constant pressure,"288.15 K, m1 = 1.032",74.37 ± 1.2 J/K/mol
same,molar heat capacity at constant pressure,"293.15 K, m1 = 0.2038",75.25 ± 1.2 J/K/mol
same,molar heat capacity at constant pressure,"293.15 K, m1 = 0.3971",74.95 ± 1.2 J/K/mol
same,molar heat capacity at constant pressure,"293.15 K, m1 = 1.032",74.28 ± 1.2 J/K/mol
same,molar heat capacity at constant pressure,"298.15 K, m1 = 0.2038",75.23 ± 1.2 J/K/mol
same,molar heat capacity at constant pressure,"298.15 K, m1 = 0.3971",74.91 ± 1.2 J/K/mol
same,molar heat capacity at constant pressure,"298.15 K, m1 = 1.032",74.26 ± 1.1 J/K/mol
same,molar heat capacity at constant pressure,"303.15 K, m1 = 0.2038",75.22 ± 1.2 J/K/mol
same,molar heat capacity at constant pressure,"303.15 K, m1 = 0.3971",74.9 ± 1.2 J/K/mol
same,molar heat capacity at constant pressure,"303.15 K, m1 = 1.032",74.22 ± 1.1 J/K/mol
same,molar heat capacity at constant pressure,"308.15 K, m1 = 0.2038",75.2 ± 1.2 J/K/mol
same,molar heat capacity at constant pressure,"308.15 K, m1 = 0.3971",74.87 ± 1.2 J/K/mol
same,molar heat capacity at constant pressure,"308.15 K, m1 = 1.032",74.21 ± 1.1 J/K/mol
same,molar heat capacity at constant pressure,"313.15 K, m1 = 0.2038",75.18 ± 1.2 J/K/mol
same,molar heat capacity at constant pressure,"313.15 K, m1 = 0.3971",74.87 ± 1.2 J/K/mol
same,molar heat capacity at constant pressure,"313.15 K, m1 = 1.032",74.2 ± 1.1 J/K/mol
same,molar heat capacity at constant pressure,"318.15 K, m1 = 0.2038",75.19 ± 1.2 J/K/mol
same,molar heat capacity at constant pressure,"318.15 K, m1 = 0.3971",74.88 ± 1.2 J/K/mol
same,molar heat capacity at constant pressure,"318.15 K, m1 = 1.032",74.21 ± 1.1 J/K/mol
same,molar heat capacity at constant pressure,"323.15 K, m1 = 0.2038",75.2 ± 1.2 J/K/mol
same,molar heat capacity at constant pressure,"323.15 K, m1 = 0.3971",74.96 ± 1.2 J/K/mol
same,molar heat capacity at constant pressure,"323.15 K, m1 = 1.032",74.26 ± 1.1 J/K/mol
same,molar heat capacity at constant pressure,"328.15 K, m1 = 0.2038",75.21 ± 1.2 J/K/mol
same,molar heat capacity at constant pressure,"328.15 K, m1 = 0.3971",74.99 ± 1.2 J/K/mol
same,molar heat capacity at constant pressure,"328.15 K, m1 = 1.032",74.27 ± 1.2 J/K/mol
same,molar heat capacity at constant pressure,"333.15 K, m1 = 0.2038",75.25 ± 1.2 J/K/mol
same,molar heat capacity at constant pressure,"333.15 K, m1 = 0.3971",75.03 ± 1.2 J/K/mol
same,molar heat capacity at constant pressure,"333.15 K, m1 = 1.032",74.28 ± 1.2 J/K/mol
same,molar heat capacity at constant pressure,"338.15 K, m1 = 0.2038",75.27 ± 1.2 J/K/mol
same,molar heat capacity at constant pressure,"338.15 K, m1 = 0.3971",75.11 ± 1.2 J/K/mol
same,molar heat capacity at constant pressure,"338.15 K, m1 = 1.032",74.32 ± 1.2 J/K/mol
same,molar heat capacity at constant pressure,"343.15 K, m1 = 0.2038",75.38 ± 1.2 J/K/mol
same,molar heat capacity at constant pressure,"343.15 K, m1 = 0.3971",75.21 ± 1.2 J/K/mol
same,molar heat capacity at constant pressure,"343.15 K, m1 = 1.032",74.34 ± 1.2 J/K/mol
same,molar heat capacity at constant pressure,"348.15 K, m1 = 0.2038",75.47 ± 1.2 J/K/mol
same,molar heat capacity at constant pressure,"348.15 K, m1 = 0.3971",75.26 ± 1.2 J/K/mol
same,molar heat capacity at constant pressure,"348.15 K, m1 = 1.032",74.45 ± 1.2 J/K/mol

# — the NIST ThermoML archive (doi:10.1016/j.jct.2018.10.027)
